This passage reports IC50 results from patent US20250304567A1, “PYRROLIDIONE DERIVATIVES AS INHIBITORS OF NF KAPPA B INDUCING KINASE” (priority 2022, published 2025).

Where two headings read alike, the source gives them in different places.

Assay [1] relates to p-IKKa levels in L363 (NIK translocated multiple myeloma) cells. Description: Effect of compounds on p-IKKa levels in L363 (NIK translocated multiple myeloma) cells (AlphaLISA SureFire Ultra p-IKKa Ser176/180). The class given is cell-based, human. Particulars: average if tested more than once, read-out: Assay 2 IC50. In a few lines: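 Phospho-IKKa (Ser176/180) in lysates quantified by AlphaLISA after 6 h compound exposure, 11-point threefold dilutions, 0.3% DMSO. L363 cells were pre-stimulated overnight and assayed with 250 ng/ml BAFF and 10 μM MG132; % inhibition fitted sigmoidally for IC50, duplicate curves.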
A general note: Bead proximity is the source of the signal in Alpha formats.

In assay [2] the target is Recombinant Human NF-kappaB-Inducing Kinase (NIK/MAP3K14) (Homo sapiens, UniProt Q99558). Description: Inhibition of auto-phosphorylation of recombinant human NIK/MAP3K14 activity (AlphaScreen). Particulars: 5 μM ATP, 1 nM NIK, average if tested more than once. The class given is biochemical. In outline:
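AlphaScreen detection of phospho-Ser176/180 after 1 nM GST-NIK auto-phosphorylates for 2 h at 25 °C with 5 μM ATP (50 mM Tris pH 7.5, 0.7% DMSO). IC50s come from sigmoidal curves of % inhibition against log dose, using enzyme-free, ATP-free low controls and full-activity high controls.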

Where [3] appears, read: Homo sapiens, L-363, p-IKKa levels in L363 cells.

Sequence of Recombinant Human NF-kappaB-Inducing Kinase (NIK/MAP3K14) (Q99558 whole entry): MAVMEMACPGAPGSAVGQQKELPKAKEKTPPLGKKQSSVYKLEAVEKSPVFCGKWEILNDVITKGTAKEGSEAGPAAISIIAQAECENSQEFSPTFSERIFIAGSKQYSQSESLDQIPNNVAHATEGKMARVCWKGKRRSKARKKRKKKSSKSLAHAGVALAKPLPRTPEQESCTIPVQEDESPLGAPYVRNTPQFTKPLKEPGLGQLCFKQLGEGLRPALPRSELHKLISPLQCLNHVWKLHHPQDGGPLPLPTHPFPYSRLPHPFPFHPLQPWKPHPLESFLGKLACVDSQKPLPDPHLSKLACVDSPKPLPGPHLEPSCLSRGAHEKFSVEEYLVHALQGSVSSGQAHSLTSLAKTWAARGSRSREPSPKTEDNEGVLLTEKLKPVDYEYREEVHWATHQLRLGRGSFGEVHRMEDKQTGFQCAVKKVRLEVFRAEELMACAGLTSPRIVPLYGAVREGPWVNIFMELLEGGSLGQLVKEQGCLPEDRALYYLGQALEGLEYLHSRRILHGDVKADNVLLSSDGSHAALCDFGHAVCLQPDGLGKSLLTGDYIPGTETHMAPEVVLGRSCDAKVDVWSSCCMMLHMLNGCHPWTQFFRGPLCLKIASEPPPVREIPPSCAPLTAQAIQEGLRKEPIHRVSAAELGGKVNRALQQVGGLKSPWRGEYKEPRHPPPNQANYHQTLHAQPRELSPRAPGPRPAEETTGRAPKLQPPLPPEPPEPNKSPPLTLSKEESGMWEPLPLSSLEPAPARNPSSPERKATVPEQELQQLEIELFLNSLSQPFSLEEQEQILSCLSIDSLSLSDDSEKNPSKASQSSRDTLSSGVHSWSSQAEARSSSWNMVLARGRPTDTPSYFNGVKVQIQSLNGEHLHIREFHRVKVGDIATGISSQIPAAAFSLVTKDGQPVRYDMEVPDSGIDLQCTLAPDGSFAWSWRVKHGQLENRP

Turning to `CNC(=O)c1ccc(C)c(Nc2nccc(-c3csc(-c4cccc([C@]5(O)CCN(C)C5=O)c4)n3)n2)c1` [Example 10, (R)-3-((4-(2-(3-(3-Hydroxy-1-methyl-2-oxopyrrolidin-3-yl)phenyl)thiazol-4-yl)pyrimidin-2-yl)amino)-N,4-dimethylbenzamide], the 50% inhibitory concentration (IC50) (as a rule, the concentration that inhibits the measured activity by half) in assay [1] (setting [3]) was 100 to 500 nM; in assay [2] it was under 100 nM.

For `COCCOc1nn(CC(F)F)cc1Nc1nccc(-c2csc(-c3cccc([C@]4(O)CCN(C)C4=O)c3)n2)n1` [Example 11, (R)-3-(3-(4-(2-((1-(2,2-Difluoroethyl)-3-(2-methoxyethoxy)-1H-pyrazol-4-yl)amino)pyrimidin-4-yl)thiazol-2-yl)phenyl)-3-hydroxy-1-methylpyrrolidin-2-one], the IC50 in assay [1] (setting [3]) and in assay [2] was under 100 nM in each case.

On to `CNC(=O)c1cc(Nc2nccc(-c3csc(-c4cccc([C@]5(O)CCN(C)C5=O)c4)n3)n2)c(OC2CC2)cc1F` [Example 12, (R)-4-Cyclopropoxy-2-fluoro-5-((4-(2-(3-(3-hydroxy-1-methyl-2-oxopyrrolidin-3-yl)phenyl)thiazol-4-yl)pyrimidin-2-yl)amino)-N-methylbenzamide], for which the IC50 in assay [1] (setting [3]) was 100 to 500 nM; in assay [2], under 100 nM.

Regarding `CNC(=O)c1cc(Nc2nccc(-c3csc(-c4cccc([C@]5(O)CCN(C)C5=O)c4)n3)n2)n(CC(C)C)n1` [Example 13, (R)-5-((4-(2-(3-(3-Hydroxy-1-methyl-2-oxopyrrolidin-3-yl)phenyl)thiazol-4-yl)pyrimidin-2-yl)amino)-1-isobutyl-N-methyl-1H-pyrazole-3-carboxamide], the IC50 was 100 to 500 nM in assay [1] (setting [3]) and under 100 nM in assay [2].

For `Cc1cc(Nc2nccc(-c3csc(-c4cccc([C@]5(O)CCN(C)C5=O)c4)n3)n2)c(=O)n(C)c1` [Example 14, (R)-3-((4-(2-(3-(3-Hydroxy-1-methyl-2-oxopyrrolidin-3-yl)phenyl)thiazol-4-yl)pyrimidin-2-yl)amino)-1,5-dimethylpyridin-2(1H)-one], the IC50 in assay [1] (setting [3]) was 100 to 500 nM; in assay [2] it was under 100 nM.

For `CNC(=O)c1cc(Nc2nccc(-c3csc(-c4cccc([C@]5(O)CCN(C)C5=O)c4)n3)n2)n(C2CCCC2)n1` [Example 15, (R)-1-Cyclopentyl-5-((4-(2-(3-(3-hydroxy-1-methyl-2-oxopyrrolidin-3-yl)phenyl)thiazol-4-yl)pyrimidin-2-yl)amino)-N-methyl-1H-pyrazole-3-carboxamide], the IC50 in assay [1] (setting [3]) was 100 to 500 nM; in assay [2] it was under 100 nM.

Take `Cc1cnc(Nc2ccn(C)n2)nc1-c1csc(-c2cccc([C@]3(O)CCN(C)C3=O)c2)n1` [Example 16, (R)-3-Hydroxy-1-methyl-3-(3-(4-(5-methyl-2-((1-methyl-1H-pyrazol-3-yl)amino)pyrimidin-4-yl)thiazol-2-yl)phenyl)pyrrolidin-2-one]: the results for the IC50 in assay [1] (setting [3]) and in assay [2] were over 501 nM and 100 to 500 nM, respectively.

Consider `Cc1sc(-c2cccc([C@]3(O)CCN(C)C3=O)c2)nc1-c1ccnc(Nc2ccn(C)n2)n1` [Example 17, (R)-3-Hydroxy-1-methyl-3-(3-(5-methyl-4-(2-((1-methyl-1H-pyrazol-3-yl)amino)pyrimidin-4-yl)thiazol-2-yl)phenyl)pyrrolidin-2-one], for which the half-maximal inhibitory concentration (IC50) was over 501 nM in assay [1] (setting [3]) and under 100 nM in assay [2].

In the case of `CN1CC[C@@](O)(c2cccc(-c3csc(-c4ccnc(Nc5cnn(CC6CC6)c5)n4)n3)c2)C1=O` [Example 20, (R)-3-(3-(2-(2-((1-(cyclopropylmethyl)-1H-pyrazol-4-yl)amino)pyrimidin-4-yl)thiazol-4-yl)phenyl)-3-hydroxy-1-methylpyrrolidin-2-one], the values for the IC50 in assay [1] (setting [3]) and in assay [2] were over 501 nM and 100 to 500 nM, respectively.

In the case of `CN1CC[C@@](O)(c2cccc(-c3cccc(-c4ccnc(Nc5ccn(C)n5)n4)n3)c2)C1=O` [Example 22, (R)-3-Hydroxy-1-methyl-3-(3-(6-(2-((1-methyl-1H-pyrazol-3-yl)amino)pyrimidin-4-yl)pyridin-2-yl)phenyl)pyrrolidin-2-one], the half-inhibitory concentration (IC50) in assay [1] (setting [3]) and in assay [2] was over 501 nM throughout.

On to `CN1CC[C@@](O)(c2cccc(-c3cccc(-c4ccnc(NCCCO)n4)n3)c2)C1=O` [Example 23, (R)-3-Hydroxy-3-(3-(6-(2-((3-hydroxypropyl)amino)pyrimidin-4-yl)pyridin-2-yl)phenyl)-1-methylpyrrolidin-2-one], for which the IC50 in assay [1] (setting [3]) and in assay [2] was over 501 nM each time.

As for `Cc1cc(Nc2nccc(-c3csc(-c4cccc([C@]5(O)CCN(C)C5=O)c4)n3)n2)ccn1` [Example 43, (R)-3-Hydroxy-1-methyl-3-(3-(4-(2-((2-methylpyridin-4-yl)amino)pyrimidin-4-yl)thiazol-2-yl)phenyl)pyrrolidin-2-one], the IC50 in assay [1] (setting [3]) is 100 to 500 nM; in assay [2], under 100 nM.

Regarding `CN1CC[C@@](O)(c2cccc(-c3csc(-c4ccnc(Nc5cnn(C(CO)CO)c5)n4)n3)c2)C1=O` [Example 44, (R)-3-(3-(2-(2-((1-(1,3-dihydroxypropan-2-yl)-1H-pyrazol-4-yl)amino)pyrimidin-4-yl)thiazol-4-yl)phenyl)-3-hydroxy-1-methylpyrrolidin-2-one], the IC50 in assay [1] (setting [3]) is over 501 nM; in assay [2], under 100 nM.

Consider `CC(Nc1nccc(-c2csc(-c3cccc([C@]4(O)CCN(C)C4=O)c3)n2)n1)c1nc2ccccc2[nH]1` (stereo partly drawn) [Example 45, (R)-3-(3-(4-(2-(((R,S)-1-(1H-benzo[d]imidazol-2-yl)ethyl)amino)pyrimidin-4-yl)thiazol-2-yl)phenyl)-3-hydroxy-1-methylpyrrolidin-2-one], for which the IC50 was over 501 nM in assay [1] (p-IKKa levels in L363 cells) and under 100 nM in assay [2].

For the molecule `CN1CC[C@@](O)(c2cccc(-c3nc(-c4ccnc(NC5CCN(S(C)(=O)=O)CC5)n4)cs3)c2)C1=O` [Example 47, (R)-3-Hydroxy-1-methyl-3-(3-(4-(2-((1-(methylsulfonyl)piperidin-4-yl)amino)pyrimidin-4-yl)thiazol-2-yl)phenyl)pyrrolidin-2-one], the IC50 was over 501 nM in assay [1] (setting [3]) and under 100 nM in assay [2].

On to `Cc1cccc(Nc2nccc(-c3csc(-c4cccc([C@]5(O)CCN(C)C5=O)c4)n3)n2)n1` [Example 48, (R)-3-hydroxy-1-methyl-3-(3-(4-(2-((6-methylpyridin-2-yl)amino)pyrimidin-4-yl)thiazol-2-yl)phenyl)pyrrolidin-2-one], for which the values for the half-maximal inhibitory concentration (IC50) in assay [1] (setting [3]) and in assay [2] were over 501 nM and under 100 nM, respectively.

Turning to `Cc1cc(Nc2nccc(-c3csc(-c4cccc([C@]5(O)CCN(C)C5=O)c4)n3)n2)nn1C` [Example 49, (R)-3-(3-(4-(2-((1,5-Dimethyl-1H-pyrazol-3-yl)amino)pyrimidin-4-yl)thiazol-2-yl)phenyl)-3-hydroxy-1-methylpyrrolidin-2-one], the IC50 was 100 to 500 nM in assay [1] (setting [3]) and under 100 nM in assay [2].

On to `CN1CC[C@@](O)(c2cccc(-c3nc(-c4nc(Nc5ccn(C)n5)ncc4F)cs3)c2)C1=O` [Example 52, (R)-3-(3-(4-(5-Fluoro-2-((1-methyl-1H-pyrazol-3-yl)amino)pyrimidin-4-yl)thiazol-2-yl)phenyl)-3-hydroxy-1-methylpyrrolidin-2-one], for which the concentration for half-maximal inhibition (IC50) in assay [1] (setting [3]) is over 501 nM; in assay [2], 100 to 500 nM.

Take `CN1CCn2nc(Nc3nccc(-c4csc(-c5cccc([C@]6(O)CCN(C)C6=O)c5)n4)n3)cc2C1=O` [Example 53, (R)-2-((4-(2-(3-(3-Hydroxy-1-methyl-2-oxopyrrolidin-3-yl)phenyl)thiazol-4-yl)pyrimidin-2-yl)amino)-5-methyl-6,7-dihydropyrazolo[1,5-a]pyrazin-4(5H)-one]: the half-maximal inhibitory concentration (IC50) in assay [1] (setting [3]) is 100 to 500 nM; in assay [2], under 100 nM.

For `CN1CC[C@@](O)(c2cccc(-c3nc(-c4ccnc(Nc5cnn6c5NCCC6)n4)cs3)c2)C1=O` [Example 54, (R)-3-hydroxy-1-methyl-3-(3-(4-(2-((4,5,6,7-tetrahydropyrazolo[1,5-a]pyrimidin-3-yl)amino)pyrimidin-4-yl)thiazol-2-yl)phenyl)pyrrolidin-2-one], the IC50 in assay [1] (setting [3]) was 100 to 500 nM; in assay [2], under 100 nM.

`CN1CC[C@@](O)(c2cccc(-n3ccc(-c4ccnc(Nc5ccn(C)n5)n4)n3)c2)C1=O` [Example 55, (R)-3-hydroxy-1-methyl-3-(3-(3-(2-((1-methyl-1H-pyrazol-3-yl)amino)pyrimidin-4-yl)-1H-pyrazol-1-yl)phenyl)pyrrolidin-2-one]: the IC50 in assay [1] (setting [3]) is 100 to 500 nM; in assay [2], under 100 nM.

Take `CN1CC[C@@](O)(c2cccc(-c3nc(-c4ccnc(Nc5ccn(C)n5)n4)cs3)c2)C1=O` [Example 56, (R)-3-hydroxy-1-methyl-3-(3-(4-(2-((1-methyl-1H-pyrazol-3-yl)amino)pyrimidin-4-yl)thiazol-2-yl)phenyl)pyrrolidin-2-one]: the values for the IC50 in assay [1] (setting [3]) and in assay [2] were 100 to 500 nM and under 100 nM, respectively.

Regarding `CCn1ncc(C)c1Nc1nccc(-c2csc(-c3cccc([C@]4(O)CCN(C)C4=O)c3)n2)n1` [Example 64, (R)-3-(3-(4-(2-((1-ethyl-4-methyl-1H-pyrazol-5-yl)amino)pyrimidin-4-yl)thiazol-2-yl)phenyl)-3-hydroxy-1-methylpyrrolidin-2-one], the half-maximal inhibitory concentration (IC50) in assay [1] (setting [3]) and in assay [2] was over 501 nM throughout.

`CN1CC[C@@](O)(c2cccc(-c3nc(-c4ccnc(Nc5ccnn5CC5CC5)n4)cs3)c2)C1=O` [Example 65, (R)-3-(3-(4-(2-((1-(cyclopropylmethyl)-1H-pyrazol-5-yl)amino)pyrimidin-4-yl)thiazol-2-yl)phenyl)-3-hydroxy-1-methylpyrrolidin-2-one]: the IC50 in assay [1] (setting [3]) was over 501 nM; in assay [2], 100 to 500 nM.
